# How the values were obtained:
# [1] = system: R2 (MTXRIIOuaR2-4) RFC-, PCFT-, and FRα-null CHO cells; test: Cell proliferation assay, transporter-null R2 CHO subline; format: cell-based, Chinese hamster; conditions: Cricetulus griseus, transporter-null control cells, 96 h, up to 1000 nM, mean (standard error)
# From the text: (§1) We used a unique panel of engineered Chinese hamster ovary (CHO) sublines derived from a transporter-null MTXRIIOua^R2-4 CHO subline (R2) and designed to individually express human FRα (RT16), FRβ (D4), RFC (PC43-10), or PCFT (R2/PCFT).[39]−[42] As the CHO sublines are isogenic and differ only in the presence or absence of the human folate transporters, differences in the extent of inhibition of cell proliferation between the cell lines upon treatment with the various compounds provide a robust readout of transport specificities.[25],[26],[29],[30],[43]
# (§2) The CHO sublines were treated for 96 h with a range of drug concentrations up to 1000 nM; cell viabilities were measured with a fluorescence assay.[26] […] As a control, we used transporter-null R2 cells.[42] To extend studies to human tumor cells, we also performed experiments in RFC-, PCFT-, and FRα-expressing KB tumor cells.[44] To confirm the contribution of FR-mediated uptake to antitumor activity, for KB cells, we added 200 nM folic acid, which inhibits FR uptake by direct competition without effects on either RFC or PCFT.[25],[26],[28]−[30],[43]
# (§3) The MTXRIIOua^R2-4 RFC-, PCFT-, and FRα-null Chinese hamster ovary (CHO) cell line (R2) was a gift from Dr. Wayne Flintoff (University of Western Ontario).[40],[42] Isogenic CHO cell lines were subsequently derived from R2 cells by transfection with RFC, PCFT, or FRα cDNAs to generate PC43-10 (expresses only human RFC), R2/PCFT4 (expresses only human PCFT), RT16 (expresses only human FRα), and D4 (expresses only human FRβ).[25],[26],[39]
# (§4) The CHO sublines were cultured in α-minimal essential medium (α-MEM) supplemented with 100 U/mL penicillin/100 μg/mL streptomycin, 2 mM L-glutamine, and 10% bovine calf serum (Sigma-Aldrich). For the PC43-10, R2/PCFT4, RT16, and D4 sublines, 1.5 mg/mL G418 was also added. Seventy-two hours prior to in vitro proliferation assays (below), RT16 and D4 CHO cells were grown in folate-free RPMI with dialyzed fetal bovine serum (DFBS) (Invitrogen) supplemented with 100 U/mL penicillin/[…] streptomycin and 2 mM L-glutamine. FRα-expressing KB nasopharyngeal carcinoma cells were acquired from the American Type Culture Collection (Manassas, VA); cells were grown in complete folate-free RPMI 1640 supplemented with 10% fetal bovine serum, 100 U/mL penicillin/100 μg/mL streptomycin, and 2 mM L-glutamine. Cell lines were authenticated by STR analysis (Genetica DNA Laboratories, Burlington, NC) and tested for Mycoplasma by PCR (Venor GeM Mycoplasma Detection Kit, Sigma). Frozen stocks were generated from authenticated Mycoplasma-free cultures.
# (§5) Cell proliferation assays used CHO and KB cells cultured in folate-free-RPMI 1640 media with 10% DFBS, 2 mM L-glutamine, and 100 U/mL penicillin/100 μg/mL streptomycin supplemented with 2 nM (KB, RT16, D4) or 25 nM (R2, PC43-10, R2/PCFT4) leucovorin.[25],[26],[30] Parallel incubations with 200 nM folic acid were performed in viability assays to confirm FR-mediated drug uptake. Cells were plated in 96-well dishes at 2500–5000 cells/well in 200 μL media and treated with a range of C1 inhibitors spanning 0 to 1 μM. Cells were treated at 37 ° C with 5% CO2, and numbers were assayed after 96 h using CellTiter-blue (Promega, Madison, WI) and a fluorescence plate reader.[25],[26]
# [2] = system: PC43-10 CHO cells (expresses only human RFC); test: Cell proliferation assay, PC43-10 CHO subline; format: cell-based, Chinese hamster; conditions: 96 h, up to 1000 nM, 25 nM leucovorin, mean (standard error); for IC50: Homo sapiens, PC43-10
# From the text: as §1, §2, §3, §4, §5
# [3] = system: RT16 CHO cells (expresses only human FRα); test: Cell proliferation assay, RT16 CHO subline; format: cell-based, Chinese hamster
# From the text: as §1, §2, §3, §4, §5
# KB tumor cells = test: Metabolite rescue of growth inhibition in KB cells; format: cell-based, human; conditions: glycine- and nucleoside-free media; for Protection from growth inhibition by glycine plus adenosine over adenosine alone: 160 μM glycine combined with 60 μM adenosine; for Protection from growth inhibition by adenosine: inhibitor up to 1000 nM, 60 μM adenosine alone
# Protocol: Upper panel: schematic of C1 metabolism. Undefined abbreviations include the following: DHF, dihydrofolate; THF, tetrahydrofolate; FAICAR, formyl 5-aminoimidazole-4-carboxamide ribonucleotide; fGAR, formyl GAR; and 5,10-meTHF, 5,10-methylene tetrahydrofolate. Lower panels: KB cells were plated (4000 cells/well) in glycine-, nucleoside-, and folate-free RPMI 1640 medium with 10% dialyzed fetal bovine serum, antibiotics, L-glutamine, and 2 nM leucovorin over a range of inhibitor concentrations in the presence of adenosine (60 μM), glycine (160 μM), thymidine (10 μM), or AICA (320 μM). As shown, combined glycine plus adenosine or AICA was also tested to identify potential mitochondrial C1 targeting.[45] Cell proliferation was assayed with a fluorescence-based assay.[26] Data are representative of at least triplicate experiments (presented as mean values plus/minus standard errors). Methods are described in the Experimental Section, and additional metabolite rescue data for 4, 5, and 8–11 are presented in Figure S3 (Supporting Information).
# Metabolite “rescue” experiments have been used to identify targeted pathways for novel antifolate inhibitors including de novo purine nucleotide and thymidylate biosynthesis (protection by adenosine and thymidine, respectively)[25]−[27],[29],[30],[32],[43],[45]−[47] and mitochondrial C1 metabolism (protection by glycine and adenosine).[45] To gain insights into the targeted pathways that contribute to the loss of KB tumor cell proliferation upon treatment with compounds 3–9, we tested the reversal of growth inhibition by the active compounds in Table 1 (up to 1000 nM) in glycine- and nucleoside-free media in the presence of 60 μM adenosine, 160 μM glycine, or 10 μM thymidine alone or with combined adenosine and glycine. The use of glycine- and nucleoside-free media for these experiments expands the ability to identify causal intracellular targets (including previously unrecognized mitochondrial targets[45]) that can be confirmed by targeted metabolomics and direct in vitro assays (below). […] The results of these experiments are shown in Figure 7 (lower panel) and in Figure S3 (Supporting Information).
# AICA circumvents the first folate-dependent enzyme, GARFTase, and is directly metabolized to ZMP (AICAR), thus providing a substrate for AICARFTase[26],[32],[46] (Figure 7, upper panel). This distinguishes primary inhibition at GARFTase (protection by AICA) versus AICARFTase (incomplete protection by AICA) for inhibitors of de novo purine biosynthesis.[25]
# Additional proliferation assays with metabolite rescue used KB cells to identify the targeted pathway and enzyme(s) in folate- and glycine-free RPMI1640, DFBS, 2 mM glutamine, and antibiotics. […] These assays have been previously described.[25],[26],[45]
# [4] = Homo sapiens, RT16; 96 h, 2 nM leucovorin; mean (standard error)
# [5] = Homo sapiens, RT16, 96 h, 2 nM leucovorin, mean (standard error)
SMILES,IC50 [1] [nM],IC50 [2] [nM],"IC50 [3, 4] [nM]",Protection from growth inhibition by glycine plus adenosine over adenosine alone (KB tumor cells),Protection from growth inhibition by adenosine (KB tumor cells),"IC50 ([3]; 96 h, 2 nM leucovorin; mean (standard error)) [nM]","IC50 [3, 5] [nM]",IC50 RFC PC43-10 [2]
"Nc1nc2sc(CCCCc3ccc(C(=O)N[C@@H](CCC(=O)O)C(=O)O)nc3)cc2c(=O)[nH]1 [Compound 4, (5-(4-(2-Amino-4-oxo-3,4-dihydrothieno[2,3-d]pyrimidin-6-yl)butyl)picolinoyl)-L-glutamic Acid]",> 1000,> 1000,0.94,slightly and reproducibly enhanced,substantially protective,,,
"Nc1nc2sc(CCCCc3cccc(C(=O)N[C@@H](CCC(=O)O)C(=O)O)n3)cc2c(=O)[nH]1 [Compound 3, (6-(4-(2-Amino-4-oxo-3,4-dihydrothieno[2,3-d]pyrimidin-6-yl)butyl)picolinoyl)-L-glutamic Acid]",> 1000,> 1000,,,,24.7,25,
"Nc1nc2sc(CCCc3ccc(C(=O)N[C@@H](CCC(=O)O)C(=O)O)c(F)c3)cc2c(=O)[nH]1 [Compound 6, (4-(3-(2-Amino-4-oxo-3,4-dihydrothieno[2,3-d]pyrimidin-6-yl)propyl)-2-fluorobenzoyl)-L-glutamic Acid]",> 1000,> 1000,,substantially enhanced and was complete,,,1.07,
Nc1nc2sc(CCCc3ccc(C(=O)N[C@@H](CCC(=O)O)C(=O)O)cc3)cc2c(=O)[nH]1 [Compound 1],,,,substantially enhanced and was complete,,,,
"Nc1nc2sc(CCCCc3ccc(C(=O)N[C@@H](CCC(=O)O)C(=O)O)c(F)c3)cc2c(=O)[nH]1 [Compound 7, (4-(4-(2-Amino-4-oxo-3,4-dihydrothieno[2,3-d]pyrimidin-6-yl)butyl)-2-fluorobenzoyl)-L-glutamic Acid]",> 1000,> 1000,,slightly and reproducibly enhanced,substantially protective,,2.27,
"Nc1nc2sc(CCCCc3csc(C(=O)N[C@@H](CCC(=O)O)C(=O)O)c3F)cc2c(=O)[nH]1 [Compound 9, (4-(4-(2-Amino-4-oxo-3,4-dihydrothieno[2,3-d]pyrimidin-6-yl)butyl)-3-fluorothiophene-2-carbonyl)-L-glutamic Acid]",> 1000,> 1000,1.29,slightly and reproducibly enhanced,substantially protective,,,
"Nc1nc2sc(CCCc3csc(C(=O)N[C@@H](CCC(=O)O)C(=O)O)c3F)cc2c(=O)[nH]1 [Compound 8, (4-(3-(2-Amino-4-oxo-3,4-dihydrothieno[2,3-d]pyrimidin-6-yl)propyl)-3-fluorothiophene-2-carbonyl)-L-glutamic Acid]",> 1000,560,,,completely protective,,1.96,slight inhibition
"Nc1nc2sc(CCCCc3cnc(C(=O)N[C@@H](CCC(=O)O)C(=O)O)c(F)c3)cc2c(=O)[nH]1 [Compound 5, (5-(4-(2-Amino-4-oxo-3,4-dihydrothieno[2,3-d]pyrimidin-6-yl)butyl)-3-fluoropicolinoyl)-L-glutamic Acid]",> 1000,> 1000,,,completely protective,,1.23,

# — paper PMC10186366 (ACS Pharmacology & Translational Science, 2023)
